Article PMC7738205 (Cell Cycle, 2020)
Entries after “also recorded” stand apart in the source; their conditions may differ.

Experiments:
[1] = tested on: SARS-CoV-2 strain USA-WA1/2020; format: cell-based; conditions: dNHBE cells, conversion of 5.55 µM
[2] = tested on: human bronchial epithelial lining cells; experiment: Cytotoxicity in human bronchial epithelial lining cells; format: cell-based
[3] = tested on: MA-104 cells; conditions: visual or neutral red reads
[4] = tested on: human epithelial airway cells; conditions: 1 µM dose; cited from earlier work

SMILES | average EC90 expressed [1] | observed cytotoxicity at highest dose given ([2]; 30 µM) | cytotoxicity to MA-104 cells [3] | toxicity in human epithelial airway cells [4] | observed cytotoxicity at highest dose given ([2]; 1.66 µM)
CC#C[C@]1(O)CCC2C3CCC4=CC(=O)CCC4=C3[C@@H](c3ccc4c(c3)OCO4)C[C@@]21C (some centres unmarked) [PT150] | 3.13 µg/mL | No cytotoxicity; also recorded: no observed cytotoxicities | significant cytotoxicity | absence of toxicity | 
CCC(CC)COC(=O)[C@H](C)N[P@](=O)(OC[C@H]1O[C@@](C#N)(c2ccc3c(N)ncnn23)[C@H](O)[C@@H]1O)Oc1ccccc1 [Remdesivir, reference compound] |  |  |  |  | no observed cytotoxicities
